# “Also recorded” adds a separate entry of the source. Read-outs that look alike come from different tables or passages of the source.
# What was measured:
# U-87 MG tumor xenografts = test: µPET/CT imaging
# Method: (§1) SCID female mice (Harlan, Indianapolis, IN, USA) at 6–8 weeks of age were subcutaneously injected into the right flank with 5 × 10^6 U-87 MG cells mixed with Matrigel Matrix (Corning, Corning, NY, USA) at a 1:1 ratio. The tumor growth was continuously monitored by caliperation. When the tumor volume reached 100–300 mm^3 (i.e., 6–8 weeks after inoculation of cells), the mice were used for ex vivo biodistribution studies or µPET/CT imaging. The experimental animals were housed in a specific-pathogen-free animal facility. […] The number of animals was reduced as much as possible (n = 3 per group and time point) for all in vivo experiments. The tracer injection and small animal imaging were carried out under 2% isoflurane anesthesia (FORANE, Abbott Laboratories, Abbott Park, IL, USA) to minimize animal suffering and to prevent animal motion.
# (§2) Experimental animals were imaged using microPET/SPECT/CT system Albira (Bruker, Billerica, Massachusetts, USA). Mice were r.o. injected with the radiolabeled tracer at a dose of 5–10 MBq (corresponding to 1–2 μg of peptide for animals injected with ^68Ga-peptides) per animal. Anesthetized animals were placed in a prone position in the Albira system before the start of imaging. Static PET/CT images were acquired over 30 min interval starting 30 and 90 minutes after injection. A 10-min PET scan (axial FOV 148 mm) was performed, followed by a double CT scan (axial FOV 65 mm, 45 kVp, 400 μA, at 400 projections). Scans were reconstructed with the Albira software (Bruker Biospin Corporation, Woodbridge, CT, USA) using the maximum likelihood expectation maximization (MLEM) and filtered back-projection (FBP) algorithms. The PMOD software (PMOD Technologies, Zurich, Switzerland) was used for the image analysis and tracer uptake quantification. Three-dimensional volume rendered images were created in VolView software (Kitware, Clifton Park, NY, USA). The data obtained by PET scan were quantified in PMOD via manually selected volumes of interest (VOIs) and expressed as standardized uptake values (SUV). Using SUVs for the tumor and brain regions the tumor to brain ratios were calculated.
# [1] = Plasma protein binding, size-exclusion spin column; conditions: human plasma, 37 °C
# Method: (§3) 10 µL of the labeled peptide was mixed with 190 μL of human plasma (Sigma Aldrich, St. Louis, MO, USA), and incubated at 37 °C. Twenty-five µL of sample were collected at 30, 60, and 120 min time intervals for the determination of protein binding. The samples were separated by size-exclusion chromatography (illustra MicroSpin G-50 Column, GE Healthcare, UK) by centrifugation (2000 × g, 1 min). The eluate (protein-bound) and appropriate column (non-protein-bound) were measured on an automatic gamma counter. The percentage of plasma protein binding (PPB) was calculated as the ratio of the activity in the eluate and the activity of the whole sample (column plus the eluate). The blank determination of protein binding, i.e., incubation of the radiotracer in PBS buffer followed by separation of the sample on gel column was performed as the control step.
# [2] = Stability in the presence of competing chelator (DTPA), HPLC radiochemical purity; conditions: 37 °C
# Method: 50 μL of ^68Ga-labeled peptides were mixed with 150 μL of 6 mM DTPA solution (Sigma Aldrich, St. Louis, MO, USA). The mixture was then incubated at 37 °C and the samples were processed for HPLC analysis to determine the radiochemical purity were taken at selected time points (30, 60, and 120 min) and directly injected on HPLC.
# Ex vivo biodistribution = conditions: mouse; for tissue to tissue ratio at 0.5 h / tissue to tissue ratio at 1.5 h: female, SCID, total radioactivity, from ex vivo biodistribution; for tissue to tissue ratio at 1.5 h: 90 min p.i.
# Method: (§4) SCID female mice (Harlan, Indianapolis, IN, USA) at 6–8 weeks of age were subcutaneously injected into the right flank with 5 × 10^6 U-87 MG cells mixed with Matrigel Matrix (Corning, Corning, NY, USA) at a 1:1 ratio. The tumor growth was continuously monitored by caliperation. When the tumor volume reached 100–300 mm^3 (i.e., 6–8 weeks after inoculation of cells), the mice were used for ex vivo biodistribution studies or µPET/CT imaging. […] The number of animals was reduced as much as possible (n = 3 per group and time point) for all in vivo experiments. The tracer injection and small animal imaging were carried out under 2% isoflurane anesthesia (FORANE, Abbott Laboratories, Abbott Park, IL, USA) to minimize animal suffering and to prevent animal motion.
# (§5) For ex vivo biodistribution studies, radiolabeled tracers were diluted with saline. The prepared solutions were applied retro-orbitally (r.o.) to the mice [35] at a dose of 1–2 MBq per mouse corresponding to 0.2–0.4 µg of the peptide. The mice were sacrificed by cervical dislocation 30 min and 90 min post-injection and organs of interest (blood, spleen, pancreas, stomach, intestine, kidneys, liver, heart, lungs, muscle, bone, and tumor) were collected. The samples were weighed and the radioactivity was measured by an automatic gamma counter. The accumulation of radiotracer in studied organs was expressed as a percentage of injected dose per gram of organ.
# [3] = Stability in the presence of competing metal (FeCl3), HPLC radiochemical purity; conditions: 37 °C
# Method: 50 μL of ^68Ga-labeled peptides were mixed with 150 μL of 0.1 mM FeCl3 (Sigma Aldrich, St. Louis, MO, USA). The mixture was incubated at 37 °C and the samples for HPLC analysis to determine the radiochemical purity were taken at selected time points (30, 60 and 120 min) and directly injected on HPLC.
# U-87 MG cells = test: Cell uptake assay with and without excess of cold peptide; format: cell-based, human; conditions: for Accumulation in U-87 MG cells: 90 min, 37 °C
# Method: Human glioblastoma multiforme U-87 MG cells (ATCC, Manassas, VA, USA) were cultured in Dulbecco’s Modified Eagle Medium (Sigma Aldrich, St. Louis, MO, USA) supplemented with 10% fetal bovine serum, 0.1 mM non-essential amino acids and 1.0 mM sodium pyruvate at 37 °C in a 5% carbon dioxide humidified incubator. The cells were subcultured and used for experiments at a confluency of 70–90%.
# Cell uptake assay was performed in 24-well plates with U-87 MG cell at high confluency. The assay itself was carried out using a dedicated buffer instead of the regular cell culture media. The buffer consists of 25 mM Tris/HCl, 5.4 mM KCl, 1.8 mM CaCl2, 0.8 mM MgSO4, 5 mM glucose, 140 mM NaCl in H2O [34].
# The cells were incubated with ^68Ga-labeled RGD peptides (20 µM) alone and also with excess (2 mM) of cold RGD peptide for 90 min (37 °C) in the buffer described above. The cells were rinsed with PBS, lysed in 0.1 M NaOH and measured for radioactivity in a gamma counter (PerkinElmer, Waltham, Massachusetts, USA). The uptake was calculated as the mean of the percentage of the applied dose ± standard deviation.
# µPET/CT imaging = conditions: female, SCID, mouse, tumor and brain (PET volumes of interest), total radioactivity
# Method: as §1, §2
# [4] = Stability in physiological pH (pH 7), HPLC radiochemical purity; conditions: 37 °C
# Method: The peptides were labeled as described above. Subsequently, 100 μL of 1.14 M sodium acetate was added to adjust the pH to 7.0. The mixture was incubated at 37 °C and the samples for HPLC analysis to determine the radiochemical purity were taken at selected time points (30, 60, and 120 min) and directly injected on HPLC.
# [5] = Plasma stability, HPLC radiochemical purity; conditions: human
# Method: (§6) 100 μL of the labeled peptide was mixed with 400 μL of human plasma (Sigma Aldrich, St. Louis, MO, USA). This mixture was incubated at 37 °C and the samples for HPLC analysis to determine the radiochemical purity were taken at selected time points (30, 60, and 120 min). The individual samples were adjusted before the injection on HPLC—every sample was mixed with acetonitrile (Roth, Karlsruhe, Germany) and placed on the shaker (450 rpm) for 60 s and then centrifuged (20,000 RCF, 3 min), followed by removing the supernatant. Finally, the supernatant was analyzed using HPLC.
# [6] = Partition coefficient (log P), octanol/PBS
# Method: Labeled peptide was diluted with 600 μL of phosphate-buffered saline (PBS), and 50 µL of the solution was mixed in the test tube with 450 μL of PBS and 500 μL of octanol. The sample was placed on the shaker (1000 RPM) for 20 min and then centrifuged at 15,000 RPM for 1 min. Subsequently, 50 µL from both octanol and water layer were collected and measured on an automatic gamma counter (PerkinElmer, Waltham, Massachusetts, USA). Partition coefficient was calculated as the decadic logarithm of the ratio of octanol/water activity.
# [7] = mouse, in vivo
# Method: as §4, §5
# U-87 MG tumor SCID mouse [8] = conditions: in vivo
# Method: as §4, §5
# in vivo [9] = conditions: female, SCID, mouse, total radioactivity
# Method: as §1, §2
# in vivo [10] = conditions: female, SCID, mouse, total radioactivity; remark: listed apart in the source
# Method: as §4, §5
# in vitro = conditions: human, plasma
# Method: as §6
# [11] = human, plasma
# Method: as §3
# U-87 MG tumor SCID mouse [12] = test: Ex vivo biodistribution; conditions: 90 min p.i., from ex vivo biodistribution
# Method: as §4, §5
# [13] = tumor and blood, Tumor to blood ratio, 30 min p.i.
# [14] = tumor and blood, Tumor to blood ratio
# [15] = tumor and kidney, Tumor to kidney ratio, 30 min p.i.
# [16] = tumor and kidney, Tumor to kidney ratio
# [17] = tumor and muscle, Tumor to muscle ratio, 30 min p.i.
# [18] = tumor and muscle, Tumor to muscle ratio
SMILES,Plasma Protein Binding (%) ([1]; incubation 30 min),Plasma Protein Binding (%) ([1]; incubation 60 min),Plasma Protein Binding (%) ([1]; incubation 120 min),% Stability in 6 mM DTPA ([2]; 60 min) [%],% Stability in 6 mM DTPA ([2]; 120 min) [%],tissue to tissue ratio at 0.5 h (Ex vivo biodistribution; [13]),tissue to tissue ratio at 1.5 h (Ex vivo biodistribution; [14]),tissue to tissue ratio at 0.5 h (Ex vivo biodistribution; [15]),tissue to tissue ratio at 1.5 h (Ex vivo biodistribution; [16]),tissue to tissue ratio at 0.5 h (Ex vivo biodistribution; [17]),tissue to tissue ratio at 1.5 h (Ex vivo biodistribution; [18]),% Stability in 0.1 M FeCl3 ([3]; 30 min) [%],% Stability in 0.1 M FeCl3 ([3]; 60 min) [%],% Stability in 0.1 M FeCl3 ([3]; 120 min) [%],tissue to tissue ratio at 1.5 h (µPET/CT imaging),% Stability in pH 7 ([4]; 30 min) [%],% Stability in pH 7 ([4]; 60 min) [%],% Stability in pH 7 ([4]; 120 min) [%],remaining at 0.5 h [5] [%],"Accumulation in U-87 MG cells (U-87 MG cells; normal cells, 20 µM)",further results
"OC[C@H]1OC(O)[C@H](F)[C@@H](O)[C@@H]1O (stereo partly drawn) [^18F-FDG, ^18F-fluorodeoxyglucose, reference compound]",,,,,,,,,,,,,,,,,,,,,"PET/CT visualization of the tumor (U-87 MG tumor xenografts; mouse, in vivo): allowed clear imaging of the tumor"
"Cc1cn([C@H]2C[C@H]([18F])[C@@H](CO)O2)c(=O)[nH]c1=O [^18F-FLT, ^18F-fluorothymidine, reference compound]",,,,,,,,,,,,,,,,,,,,,PET/CT visualization of the tumor (U-87 MG tumor xenografts; 30 and 90 min p.i.): could also be imaged
"N=C(N)NCCC[C@@H]1NC(=O)[C@H](CCCCNC(=O)CN2CCN(CC(=O)O)CCN(CC(=O)O)CCN(CC(=O)O)CC2)NC(=O)[C@@H](Cc2ccccc2)NC(=O)[C@H](CC(=O)O)NC(=O)CNC1=O [^68Ga-DOTA-c(RGDfK), DOTA-c(RGDfK), metal not drawn]",2.39,2.65,3.29,99.39 ± 0.54,99.06 ± 0.57,1.09,14.7,0.29,1.43,2.42,13.5,97.04 ± 1.24,96.76 ± 1.21,95.83 ± 1.04,4.7,99.60 ± 0.23,99.51 ± 0.13,99.49 ± 0.20,99.23 ± 0.18,lowest,% Stability in 6 mM DTPA ([2]; 30 min): 99.39 ± 0.43%; Uptake in U-87 cells compared to ^68Ga-NODAGA-c(RGDyK)2 (U-87 MG cells; normal cells): about 50%; remaining at 1 h [5]: 99.14 ± 0.19%; remaining at 2 h [5]: 98.81 ± 0.33%; logP [6]: -3.43 ± 0.11
"CSCC[C@H](NC(=O)[C@H](CC(C)C)NC(=O)CNC(=O)[C@H](Cc1ccccc1)NC(=O)[C@H](Cc1ccccc1)NC(=O)[C@H](CCC(N)=O)NC(=O)[C@H](CCC(N)=O)NC(=O)[C@@H]1CCCN1C(=O)[C@H](CCCCN)NC(=O)[C@@H]1CCCN1C(=O)[C@H](CCCNC(=N)N)NC(=O)CN1CCN(CC(=O)O)CCN(CC(=O)O)CCN(CC(=O)O)CC1)C(N)=O [^68Ga-DOTA-substance P, DOTA-substance P, metal not drawn]",,,,,,,,,,,,,,,,,,,,0.3 % of the applied dose,"tissue uptake at 1.5 h ([7]; Accumulation in kidneys): 15 to 17 %ID/g; tissue uptake at 0.5 h ([7]; Tumor uptake): 2.14 %ID/g; Tumor to blood ratio (U-87 MG tumor SCID mouse [8]): 2.8; Accumulation in kidneys (U-87 MG tumor SCID mouse [8]; 1.5 h): 15 % ID/g; tissue to tissue ratio at 1.5 h (in vivo [9]): 4.25; tissue to tissue ratio at 0.5 h (in vivo [10]; Tumor to blood ratio): 0.93; tissue to tissue ratio at 1.5 h (in vivo [10]; Tumor to blood ratio): 2.84; tissue to tissue ratio at 0.5 h (in vivo [10]; Tumor to kidney ratio): 0.14; tissue to tissue ratio at 1.5 h (in vivo [10]; Tumor to kidney ratio): 0.04; tissue to tissue ratio at 0.5 h (in vivo [10]; Tumor to muscle ratio): 3.1; tissue to tissue ratio at 1.5 h (in vivo [10]; Tumor to muscle ratio): 6.45; logP: -3.03 ± 0.33; remaining at 0.5 h (in vitro): 98.2%; remaining at 1 h (in vitro): 98.2%; remaining at 2 h (in vitro): 98%; Accumulation in U-87 MG cells (U-87 MG cells; blocked with excess (2 mM) of cold peptide): 0.3 % of the applied dose; Uptake in U-87 cells compared to ^68Ga-NODAGA-c(RGDyK)2 (U-87 MG cells; normal cells): about 50%; PET/CT visualization of the tumor (U-87 MG tumor xenografts; 30 and 90 min p.i., listed as 68Ga-substance P): did not visualize the tumor; also recorded: did not observe any substantial signal in tumors; fraction unbound [11]: ~0.71"

# Further lines, with some results ahead:
Plasma Protein Binding (%) ([1]; incubation 30 min),Plasma Protein Binding (%) ([1]; incubation 60 min),Plasma Protein Binding (%) ([1]; incubation 120 min),% Stability in 6 mM DTPA ([2]; 60 min) [%],% Stability in 6 mM DTPA ([2]; 120 min) [%],tissue to tissue ratio at 0.5 h (Ex vivo biodistribution; [13]),tissue to tissue ratio at 1.5 h (Ex vivo biodistribution; [14]),tissue to tissue ratio at 0.5 h (Ex vivo biodistribution; [15]),tissue to tissue ratio at 1.5 h (Ex vivo biodistribution; [16]),tissue to tissue ratio at 0.5 h (Ex vivo biodistribution; [17]),tissue to tissue ratio at 1.5 h (Ex vivo biodistribution; [18]),% Stability in 0.1 M FeCl3 ([3]; 30 min) [%],% Stability in 0.1 M FeCl3 ([3]; 60 min) [%],% Stability in 0.1 M FeCl3 ([3]; 120 min) [%],tissue to tissue ratio at 1.5 h (µPET/CT imaging),% Stability in pH 7 ([4]; 30 min) [%],% Stability in pH 7 ([4]; 60 min) [%],% Stability in pH 7 ([4]; 120 min) [%],remaining at 0.5 h [5] [%],SMILES,"Accumulation in U-87 MG cells (U-87 MG cells; normal cells, 20 µM)",further results
1.74,1.89,3.40,99.39 ± 0.54,99.06 ± 0.57,2.3,16.4,0.61,0.91,5.84,10.5,98.66 ± 0.82,99.22 ± 0.19,99.17 ± 0.18,4.14,99.83 ± 0.11,99.74 ± 0.18,99.62 ± 0.21,99.51 ± 0.17,"N=C(N)NCCC[C@@H]1NC(=O)[C@H](CCCCNC(=O)CC[C@H](NC(=O)CCC(C(=O)O)N2CCN(CC(=O)O)CCN(CC(=O)O)CC2)C(=O)NCCCC[C@@H]2NC(=O)[C@@H](Cc3ccc(O)cc3)NC(=O)[C@H](CC(=O)O)NC(=O)CNC(=O)[C@H](CCCNC(=N)N)NC2=O)NC(=O)[C@@H](Cc2ccc(O)cc2)NC(=O)[C@H](CC(=O)O)NC(=O)CNC1=O (stereo partly drawn) [^68Ga-NODAGA-c(RGDyK)2, NODAGA-c(RGDyK)2, metal not drawn]",highest accumulation; also recorded: highest binding,"tissue uptake at 0.5 h (Ex vivo biodistribution; tumor, Tumor uptake, 30 min p.i.): 6 %ID/g; PET/CT visualization of the tumor (U-87 MG tumor xenografts; 30 and 90 min p.i.): highest accumulation of radioactivity; also recorded: best tumor images; remaining at 1 h [5]: 99.31 ± 0.11%; remaining at 2 h [5]: 99.02 ± 0.33%; logP [6]: -3.34 ± 0.13"
2.74,1.31,3.21,99.20 ± 0.37,99.23 ± 0.32,1.9,23.1,0.36,0.9,3.23,6.51,99.24 ± 0.44,98.56 ± 0.60,98.94 ± 0.42,4,99.82 ± 0.05,99.78 ± 0.12,99.72 ± 0.22,99.23 ± 0.18,"N=C(N)NCCC[C@@H]1NC(=O)[C@H](CCCCNC(=O)CCC(C(=O)O)N2CCN(CC(=O)O)CCN(CC(=O)O)CC2)NC(=O)[C@@H](Cc2ccc(O)cc2)NC(=O)[C@H](CC(=O)O)NC(=O)CNC1=O (stereo partly drawn) [^68Ga-NODAGA-c(RGDyK), NODAGA-c(RGDyK), metal not drawn]",,% Stability in 6 mM DTPA ([2]; 30 min): 99.65 ± 0.07%; Tumor to blood ratio (U-87 MG tumor SCID mouse [12]): 23.1; remaining at 1 h [5]: 99.14 ± 0.19%; remaining at 2 h [5]: 98.81 ± 0.33%; logP [6]: -3.05 ± 0.62
